From PubChem BioAssay (NCI)
Several values for one entry are separate records, joined by “and”; a condition that tells them apart may be missing. Equal values may be shown once.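 Values below derive from 48-hour exposures of cells grown in 96-well plates, with endpoints linearly interpolated between the two concentrations bracketing the appropriate inhibition level. Abbreviation: GI50, concentration required for 50% inhibition of growth. At the TGI there is no net growth.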

Columns and labels:
Assay in all cases: NCI tumour cell line growth inhibition, 48 h
TK-10 renal = system: TK-10 renal
EKVX NSCLC = system: EKVX NSCLC
COLO 205 colon = system: COLO 205 colon
SW-620 colon = system: SW-620 colon
RXF 393 renal = system: RXF 393 renal
OVCAR-8 ovarian = system: OVCAR-8 ovarian
SK-MEL-5 melanoma = system: SK-MEL-5 melanoma
MOLT-4 leukemia = system: MOLT-4 leukemia
OVCAR-5 ovarian = system: OVCAR-5 ovarian
HCT-15 colon = system: HCT-15 colon

Row | Compound | TGI (TK-10 renal) [µM] | TGI (EKVX NSCLC) [µM] | TGI (COLO 205 colon) [µM] | TGI (SW-620 colon) | TGI (RXF 393 renal) [µM] | TGI (OVCAR-8 ovarian) [µM] | TGI (SK-MEL-5 melanoma) | TGI (MOLT-4 leukemia) [µM] | TGI (OVCAR-5 ovarian) [µM] | TGI (HCT-15 colon) [µM] | GI50 (TK-10 renal) [µM] | GI50 (EKVX NSCLC) [µM] | GI50 (COLO 205 colon) [µM] | GI50 (SW-620 colon) | GI50 (RXF 393 renal) [µM] | GI50 (OVCAR-8 ovarian) [µM] | GI50 (SK-MEL-5 melanoma) | GI50 (MOLT-4 leukemia) [µM] | GI50 (OVCAR-5 ovarian) [µM] | GI50 (HCT-15 colon) [µM]
1 | CC(C)Cn1cnc2c(SCc3ccc(Cl)cc3Cl)nc(N)nc21 | > 100 | > 100 | 24.6 | > 100 µM | > 100 | 93.3 | 22.8 µM | 26.9 | > 100 | > 100 | – | – | – | – | – | – | – | – | – | –
2 | COC(=O)CC1C[C@H](C#N)N(C(=O)c2ccccc2)C[C@@H]1CC[N+](=O)[O-] (stereo partly drawn) | > 100 | > 100 | > 100 | > 100 µM | > 100 | > 100 | > 100 µM | > 100 | > 100 | > 100 | – | – | – | – | – | – | – | – | – | –
3 | ClCc1cccc2c(CCl)cccc12 | 7.46 | 16.6 | 7.14 | 19.1 µM | 18 | 33.6 | 21.4 µM | > 100 | 27.9 | 30.1 | 2.28 | 2.83 | 2.4 | 3.4 µM | 3.33 | 4.29 | 8.23 µM | 3.98 | 12.7 | 5.92
4 | C=C1C(=O)O[C@H]2[C@H]1CC/C(COC(=O)CSCSCC(=O)OC/C1=C/CC[C@@]3(C)O[C@H]3[C@H]3OC(=O)C(=C)[C@@H]3CC1)=C\CC[C@@]1(C)O[C@@H]21 | 3.67 | 3.38 | 3.06 | 3.26 µM | 2.83 | 4.96 | 4.33 µM | 3.09 | 3.92 | 2.83 | 1.92 | 1.6 | 1.34 | 1.41 µM | 1.23 | 1.93 | 1.95 µM | 0.505 | 1.95 | 1.33
5 | C/C(=N\NC(=S)N1CC2CCC(CC2)C1)c1nccs1 | 15.9 | 11.9 | 16 | 18.9 µM | 5.39 | 13.1 | 5.24 µM | 20.7 | 15.8 | 20.4 | – | – | – | – | – | – | – | – | – | –
6 | CN(/N=C/c1cccc2cccnc12)c1ccc([N+](=O)[O-])cc1[N+](=O)[O-] | 54 | > 95 | > 100 | > 100 µM | 40.9 | > 100 | > 100 µM | > 100 | > 89.6 | > 100 | – | – | – | – | – | – | – | – | – | –
7 | O=C(O)C1=C(O)C(C(=O)O)C23CCCCCCCCCCC12C(C(=O)O)C(O)=C3C(=O)O (stereo not drawn) | > 100 | > 100 | > 100 | > 100 µM | > 100 | > 100 | > 100 µM | > 100 | > 100 | > 100 | – | – | – | – | – | – | – | – | – | –
8 | C[C@]12CC[C@@H]3c4ccc(OC(=O)N(CCCl)CCCl)cc4CC[C@H]3[C@@H]1CC[C@@H]2O | 9.98 | – | 8.94 | – | 6.42 | – | 9.27 µM | 8.15 | – | – | 3.04 | 3.26 | 2.99 | 1.58 µM | 2.23 | 3.85 | 1.95 µM | 1.78 | 9.98 | 0.875
9 | COC12C=C/C(=C(/C(=O)OCc3cncnc3)C(=O)CCCCCCCCC3(OC)C=C/C(=C(/C(=O)OCc4cncnc4)C(=O)CCCCCCCC1)O3)O2 | 1.93 | 2.39 | 2.25 | 1.19 µM | 0.714 | > 50 | – | – | 2.03 | 1.34 | 0.689 | 0.717 | 0.587 | 0.19 µM | 0.199 | 0.207 | – | – | 0.783 | 0.308
10 | CC[C@@H]1c2c(C#N)ncn2-c2cnc(Nc3ccc(C(=O)NC4CCN(C5CCN(CC6CC6)CC5)CC4)cc3OC)nc2N1C1CCCC1 | 2.23 | 2.46 | – | 1.76 µM and 1.78 µM | 1.8 | – | 1.52 µM and 1.68 µM | 1.51 | 1.39 | 1.44 | 1.03 | 1.06 | – | 0.0308 µM and 0.0327 µM | 0.0462 | – | 0.13 µM and 0.182 µM | 0.037 | 0.0449 | 0.379
11 | COC(=O)c1ccc(-c2nc3cc(Cl)c(Cl)cc3nc2C#N)cc1 | > 100 | > 100 | > 100 | > 100 µM | > 100 | > 100 | > 100 µM | > 100 | – | > 100 | > 100 | > 100 | > 100 | > 100 µM | > 100 | > 100 | > 100 µM | > 100 | – | > 100
12 | COc1ccc(C(=S)N2CCN(c3cccc(C)c3)CC2)cc1OC | > 100 | > 100 | > 100 | > 100 µM | > 100 | > 100 | > 100 µM | – | > 100 | > 100 | 7.99 | 7.05 | 3.88 | 3.04 µM | 6.05 | 8.47 | 4.55 µM | – | > 100 | 3.77
13 | O=C(c1ccccc1)c1ccccc1-c1ccccc1 | > 100 | > 100 | 8.37 | > 100 µM | 22.7 | 52.4 | 12.5 µM | – | > 100 | > 100 | 6.28 | 4.22 | 2.87 | 1.54 µM | 3.17 | 4.77 | 3.2 µM | – | 14.6 | 2.74
14 | O/N=C1/C(=C/c2ccc3c(c2)OCO3)CCCC1C(NO)c1ccc2c(c1)OCO2 (stereo not drawn) | 71.6 | 89.1 | 64.9 | > 100 µM | 55 | 67.1 | 32.3 µM | 42.5 | – | 83.8 | – | – | – | – | – | – | – | – | – | –
15 | O=C(Nc1ccc([As](=O)(O)O)cc1)Nc1cccc(Cl)c1Cl | > 100 | > 100 | > 100 | > 100 µM | 67.7 | > 100 | > 100 µM | – | > 100 | > 100 | – | – | – | – | – | – | – | – | – | –
16 | CC1=C(C(=O)Nc2cc(=O)n(C)c(=O)n2C)C(c2ccco2)C(C(=O)Nc2cc(=O)n(C)c(=O)n2C)=C(C)N1 | > 100 | > 100 | > 100 | > 100 µM | > 100 | > 100 | > 100 µM | > 100 | > 100 | – | – | – | – | – | – | – | – | – | – | –
